We go through one compound from US20090253745A1, “MODULATORS OF OCULAR OXIDATIVE STRESS” (SIRION THERAPEUTICS, INC., priority 2007, published 2009).

For one data set, the system named is SOD1 mutant mice. As to the kind of experiment: Oxidative stress biomarkers (LH, MDA, NT immunoreactivity) in eye tissue of SOD1 mutant mice after eye drop treatment. Type of data set: in vivo, mouse. The conditions noted are these: eye drops 40 mM TAPP1 in 45% β-cyclodextrin, one drop per day, 30 treatments over 6 weeks, versus vehicle. The source says:
FIG. 9. TAPP1 reduces oxidative stress in SOD1 mutant mice. The evolution of oxidative stress and retinal pathology in SOD1 mutant mice, is preceded by the formation of lipid hydroperoxides (LH), and conjugates of malondialdehyde (MDA) and nitrotyrosine (NT). These conjugates are detected in situ using appropriate monoclonal antibodies. To determine the therapeutic efficacy of the TAPP compositions in vivo, we probed fixed sections of eye tissues for these biomarkers following treatment with either TAPP1 (eye drop formulation containing 40 mM TAPP1 in 45% β-cyclodextrin) or the TAPP1 vehicle (β-cyclodextrin alone). Mice (aged 3 months) were treated with one drop per day, 5 treatments per week for 6 weeks, for a total of 30 treatments. In these studies, areas of increased light intensity indicate increased amounts of LH, MDA or NT in the tissue sections.
A mouse which lacks, or is deficient in, the superoxide dismutase 1 (SOD1) enzyme, is used as a model of oxidative stress. Previous investigations have shown that the SOD1-deficient mouse manifests a phenotype which is consistent with age-related macular degeneration (i.e., formation of drusen, thickening of Bruch's membrane and choroidal neovascularization; Imamura, et. al, Proc Natl Acad Sci, 103: 11282-11287, 2006). Following examination of appropriate biomarkers of oxidative stress, the SOD mutant mice are treated with an eye drop formulation containing 40 mM TAPP1 in β-cyclodextrin. The treatment protocol is one drop per day, 5 treatments per week for 6 weeks, for a total of 30 treatments. SOD mutant mice in the control group receive only the TAPP1 vehicle. Following the treatment regime, mice are sacrificed and eyeglobes are enucleated, fixed and prepared for histological examination. The presence of oxidative stress biomarkers (lipid hydroperoxides, LH; malondialdehyde, MDA; and nitrotyrosine, NT) in the tissue sections were evaluated by immunohistochemistry (FIG. 9). […]

A further data set in a line: in vitro. Type of data set: in vitro ADME. The conditions noted are these: mouse; 1 mM TAPP1, anterior segments of twelve eyeglobes in 0.5 ml MEM, 37° C.; read-out: half-life of hydrolysis. As to the method:
FIG. 2. In vitro hydrolysis of TAPP1 by anterior segments from mouse eyeglobes. Anterior segments were isolated from twelve wild-type mouse eyeglobes, and cultured in 0.5 ml of MEM media. TAPP1 was added to the culture to a final concentration of 1 mM, and the sample was incubated at 37° C. At 0, 1, 5, 15, 30, 60 and 120 min following incubation, 20 μl aliquot samples were removed from the culture. The aliquots were mixed with equal volume of ice-cold methanol, and incubated on ice for 10 min, followed by centrifugation at 25,000 g to precipitate proteins. TAPP1 content in the supernatant was analyzed by a capillary reverse phase C18 column. The relative quantity of TAPP1 was determined by integration of chromatographic peak area. […] Release of the two products of TAPP1 hydrolysis (designated HP-1 and HP-2) was […] to the rate of TAPP1 hydrolysis (not shown). Corneal esterases may be largely responsible for the hydrolysis of TAPP1.
The compound TAPP1 (C18H24N4O3), MW 344.18, is formulated as described above. A 40 mM solution of TAPP1 is used. […] TAPP content of the supernatant is analyzed by a capillary reverse phase C18 column. […] The relative quantity of the TAPP is determined by area integration of the TAPP elution peak. […] Isoprostanes are measured with a commercially available in vitro assay kit.

Structures are written as SMILES.

Usually half-life stands for the time in which the quantity being followed falls by half.

Regarding `CC1(C)CC(OC(=O)c2cc(-c3ccncc3)n[nH]2)CC(C)(C)N1[O]` [TAPP1, 1-oxyl-2,2,6,6-tetramethylpiperidin-4-yl 3-(pyridin-4-yl)-1H-pyrazole-5-carboxylate], in the data set on SOD1 mutant mice, the “lipid hydroperoxide (LH) immunoreactivity in ocular tissue” value is on record as “significantly reduced”, the “malondialdehyde (MDA) immunoreactivity in ocular tissue” value is given as “significantly reduced” and the “nitrotyrosine (NT) immunoreactivity in ocular tissue” value was “significantly reduced”. In addition, in the data set “in vitro”, the half-life was approximately 10 min.
